Source: patent US20240425464A1, “Substituted Monohydrazides as Potent Antifungal Agents” (University of Kentucky Research Foundation, priority 2023, published 2024)
Converted amounts (≈) assume the structure as drawn. Like-named read-outs stand apart in the source and are kept apart here.

Columns and labels:
[1] = test system: C. albicans ATCC 10231 (strain A) biofilm formation; experiment: Prevention of biofilm formation assay; type: cell-based, Candida albicans
Method: Biofilm prevention assays were set up identically to the ordinary MIC experiment, where compounds were diluted, and the fungi added. After overnight growth, the plates were washed as in the biofilm disruption assay and stained and measured in the same fashion.
A large amount of fungal cells were exposed to the monohydrazides at time 0 h to evaluate the effect of these compounds in the prevention of Candida biofilm formation (FIG. 5B). […] Although some of these monohydrazides were able to prevent biofilm formation, none of these compounds had any effect in terms of the disruption of already pre-formed biofilms (FIG. 5A).

[2] = test system: C. albicans ATCC 10231 (strain A); experiment: Time-kill assay; type: cell-based, Candida albicans; settings: at 4×MIC; CFU at 0-24 h
Method: Compounds were then added to the fungal cells. […] Experiments were performed in duplicate.

[3] = test system: Saccharomyces cerevisiae AR Bank #400; experiment: MIC determination by in vitro antifungal assay; type: cell-based
Method: The antifungal agent amphotericin B (AmB) was purchased from VWR (Radnor PA, USA). AmB was dissolved in DMSO at a final concentration of 5 mg/mL and was stored at −20° C., protected from light. Candida albicans American Type Culture Collection (ATCC) 10231 (strain A), C. albicans ATCC 64124 (B), and C. albicans ATCC MYA-2876 (C) were obtained from Utah State University. C. albicans ATCC 90819 (D), C. albicans ATCC MYA-2310 (E), C. albicans ATCC MYA-1237 (F), C. albicans ATCC MYA-1003 (G), Candida glabrata ATCC 2001 (H), Candida krusei ATCC 6258 (I), Candida parapsilosis ATCC 22019 (J), Cryptococcus neoformans ATCC MYA-895 (M), Aspergillus terreus ATCC MYA-3633 (N), and Aspergillus flavus ATCC MYA-3631 (0) were obtained from the American Type Culture Collection (ATCC; Manassas, VA, USA). Aspergillus nidulans ATCC 38163 (P) was obtained from University of Kentucky. Clinically derived Aspergillus fumigatus NRRL 163 (Q), A. fumigatus NRRL 5109 (R), and A. fumigatus NRRL 6113 (S) were obtained from Northern Regional Research Laboratory (NRRL). Candida auris 384 (K), C. auris 390 (L), and fungal strains 381-400 (including 10 C. auris (AR Bank #381-390), 3 Candida duobushaemulonii (AR Bank #391, AR Bank #392, and AR Bank #394), 2 Candida haemulonii (AR Bank #393 and AR Bank #395), 1 Kodameae ohmeri (AR Bank #396), 1 C. krusei (AR Bank #397), 1 Candida lusitaniae (AR Bank #398), and 2 Saccharomyces cerevisiae strains (AR Bank #399 and AR Bank #400)) were part of a larger fungal library from the AR Bank maintained by the Centers for Disease Control and Prevention (CDC; Atlanta, GA, USA). Filamentous fungi and yeasts were cultivated at 35° C. in RPMI 1640 medium (with L-glutamine, without sodium bicarbonate, Sigma-Aldrich, St. Louis, MO) buffered to a pH of 7.0 with 0.165 M morpholinepropanesulfonic acid (MOPS) buffer (Sigma-Aldrich). For cytotoxicity assays, HepG2 and the mouse macrophage cell line J774A.1 were obtained from University of Kentucky. The human embryonic kidney cell line, HEK-293, was bought from the ATCC. Mammalian cells were grown in Dulbecco's Modified Eagle's Medium (DMEM) (from VWR) with 10% fetal bovine serum (FBS) (from VWR) and 1% Pen/Strep (from ATCC). Cell lines were cultured at 37° C. with 5% CO2 and passaged by trypsinization with 0.05% trypsin: 0.53 mM EDTA (from Sigma-Aldrich).
From the actively growing yeast culture, 100 µL were then transferred to 900 μL of RPMI 1640 medium and re-adjusted to achieve OD600 of 0.12 (˜1×10^6 CFU/mL). The cell suspension was further diluted to achieve 1:100 in RPMI 1640 medium.

Compound	concentration active in prevention of biofilm formation [1] [j·tg mL^−1]	prevention of biofilm formation [1]	also measured
O=C(NNc1cccc(F)c1)c1ccccn1 [Compound 2a]	7.8		
O=C(NNc1cccc(Cl)c1)c1ccccn1 [Compound 2b]			fungistatic or fungicidal behavior in time-kill assay [2]: fungistatic
COc1cccc(NNC(=O)c2ccccn2)c1 [Compound 2c]	1.96		MIC [3]: 7.8 μg/mL^−1
O=C(NNc1ccc(F)cc1)c1ccccn1 [Compound 2d]	1.96		
COc1ccc(NNC(=O)c2ccccn2)cc1 [Compound 2f]	7.8		
O=C(NNc1ccc(F)cc1F)c1ccccn1 [Compound 2g]		not capable of preventing	
O=C(NNc1cc(F)ccc1F)c1ccccn1 [Compound 2h]		not capable of preventing	
O=C(NNc1cc(F)cc(F)c1)c1ccccn1 [Compound 2i]		not capable of preventing	
O=C(NNc1cc(Cl)cc(Cl)c1)c1ccccn1 [Compound 2j]		not capable of preventing	MIC ([3]; read-out: MIC): 3.9 µg/mL (≈ 13.8 µM)
COc1cccc(NNC(=O)c2cnccn2)c1 [Compound 9c]			MIC ([3]; read-out: MIC): 3.9 µg/mL (≈ 16 µM)
O=C(NNc1ccc(Cl)cc1)c1cnccn1 [Compound 9e]			MIC [3]: 3.9 μg/mL^−1
